Here are results for eleven compounds from ChEMBL document CHEMBL1124132, “Adenosine receptor agonists: synthesis and biological evaluation of 1-deaza analogues of adenosine derivatives” (J Med Chem, 1988).

Usually IC50 stands for the concentration that gives 50% inhibition. The low end stands for greater potency in that assay, the high end for weaker potency in that assay. By Ki is commonly meant the equilibrium dissociation constant of an inhibitor or competing ligand from its target. Low values mean higher affinity, high ones lower affinity. Broadly, the EC50 is the midpoint of the concentration-response curve. Low readings indicate higher potency in that assay, high ones lower potency in that assay.

Molecules are shown by their SMILES.

For assay [1], the target named is T1, Adenosine receptor A1 (Rattus norvegicus, UniProt P25099).
T1 sequence (P25099 whole entry): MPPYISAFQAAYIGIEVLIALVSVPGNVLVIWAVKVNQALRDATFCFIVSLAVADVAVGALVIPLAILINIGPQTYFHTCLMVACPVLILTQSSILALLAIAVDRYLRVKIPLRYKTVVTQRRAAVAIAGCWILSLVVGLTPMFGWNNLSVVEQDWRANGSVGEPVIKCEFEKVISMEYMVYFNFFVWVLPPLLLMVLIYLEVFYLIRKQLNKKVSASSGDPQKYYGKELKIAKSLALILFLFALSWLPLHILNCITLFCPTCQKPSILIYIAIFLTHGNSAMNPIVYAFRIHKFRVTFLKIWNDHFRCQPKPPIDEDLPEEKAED
Put plainly: Inhibition of Adenylate cyclase activity in rat fat cell membrane at adenosine A1 receptor. In kind it is cell-based.

The target of assay [2] is T2, Adenosine receptor A1 (Rattus norvegicus) (UniProt P25099).
T2 sequence (whole entry): T1 sequence (P25099 whole entry)
Put plainly: Maximal inhibition of adenylate cyclase activity relative to R-PIA for Adenosine A1 receptor (Inhibition by R-PIA=53+/-10%).

For the next assay, the species on record is Homo sapiens. Put plainly: Concentration that inhibits platelet aggregation induced by ADP (7 uM) by 50%. In kind it is functional.
Assay [3] is described as follows: A1 selectivity as ratio of EC50 at A2 receptor to IC50 at A1 receptor.
The target in assay [4] is T1, Adenosine receptor A1.
Description: Displacement of [3H]PIA from adenosine A1 receptor of rat brain membranes
In assay [5] the target is Adenosine A2 receptor (Homo sapiens, UniProt P29275+P29274).
Description: Stimulation of adenylate cyclase activity in human platelet membrane at A2 receptor
Assay [6] concerns the target Adenosine A2 receptor (Rattus norvegicus, UniProt P29276+P30543).

Regarding `Nc1ccnc2c1ncn2[C@@H]1O[C@H](CO)[C@@H](O)[C@H]1O`, the values for the IC50 on Adenosine receptor A1 [1] and in the assay filed under Homo sapiens were 6700 nM and 65500 nM, respectively. Further, the relative max inhibition in assay [2] stood at 97%. Moreover, the Selectivity in assay [3] came out at 2.7. Besides, the Ki on Adenosine receptor A1 [4] came out at 115 nM; at Adenosine A2 receptor [6], 2900 nM. The EC50 at Adenosine A2 receptor [5] was 18000 nM.
With `OC[C@H]1O[C@@H](n2cnc3c(NC4CCCC4)ncnc32)[C@H](O)[C@@H]1O` [N6-CYCLOPENTYLADENOSINE], the inhibition constant (Ki) on Adenosine A2 receptor [6] is listed as 2000 nM.
Compound `CC(Cc1ccccc1)Nc1cc(Cl)nc2c1ncn2C1O[C@H](CO)[C@@H](O)[C@H]1O` (stereo partly drawn) showed an IC50 against Adenosine receptor A1 [1] of 960 nM. For the same compound, the relative max inhibition in assay [2] is 108%. The Selectivity in assay [3] was 3.6. The Ki on Adenosine receptor A1 [4] was found to be 18 nM; on Adenosine A2 receptor [6], 3700 nM. Also, on Adenosine A2 receptor [5], the EC50 is on record as 3500 nM.
Compound `OC[C@H]1O[C@@H](n2cnc3c(NC4CCCCC4)ccnc32)[C@H](O)[C@@H]1O` came in with a 50% inhibitory concentration (IC50) against Adenosine receptor A1 [1] of 1600 nM. In addition, the relative max inhibition in assay [2] was 109%. The Selectivity in assay [3] worked out at 12.4. For the same compound, the Ki on Adenosine receptor A1 [4] stood at 16 nM; on Adenosine A2 receptor [6], 6800 nM. On Adenosine A2 receptor [5], the EC50 is listed as 20000 nM.
In the assay filed under Homo sapiens, `Nc1ncnc2c1ncn2[C@@H]1O[C@H](CO)[C@@H](O)[C@H]1O` [ADENOSINE] showed an IC50 of 5940 nM. This counts as single-digit micromolar.
In turn, `OC[C@H]1O[C@@H](n2cnc3c(NC4CCCC4)cc(Cl)nc32)[C@H](O)[C@@H]1O` gave an IC50 at Adenosine receptor A1 [1] of 360 nM. Further, in assay [2], the relative max inhibition came to 107%. Further, the Selectivity in assay [3] is 78. The Ki on Adenosine receptor A1 [4] came to 1.6 nM; at Adenosine A2 receptor [6], 13200 nM. This compound came in with an EC50 at Adenosine A2 receptor [5] of 28000 nM.
As for `OC[C@H]1O[C@@H](n2cnc3c(NC4CCCC4)ccnc32)[C@H](O)[C@@H]1O`, at Adenosine receptor A1 [1], the IC50 is 970 nM. In assay [2], the relative max inhibition is 107%. The Selectivity in assay [3] is 27. The Ki turned out to be 7.5 nM at Adenosine receptor A1 [4] and 17600 nM at Adenosine A2 receptor [6]. Besides, the EC50 at Adenosine A2 receptor [5] amounted to 26000 nM.
Regarding `CCNC(=O)[C@H]1O[C@@H](n2cnc3c(N)ncnc32)[C@H](O)[C@@H]1O` [NECA], the IC50 in the assay filed under Homo sapiens was found to be 600 nM.
In the case of `CCNC(=O)[C@H]1O[C@@H](n2cnc3c(N)ccnc32)[C@H](O)[C@@H]1O`, the results for the IC50 at Adenosine receptor A1 [1] and in the assay listed under Homo sapiens were 1500 nM and 5960 nM, respectively. Moreover, in assay [2], the relative max inhibition amounted to 104%. For the same compound, the Selectivity in assay [3] was 1.9. In addition, the Ki was determined as 51 nM at Adenosine receptor A1 [4] and 580 nM at Adenosine A2 receptor [6]. Also, the EC50 on Adenosine A2 receptor [5] amounted to 2800 nM.
With `OC[C@H]1O[C@@H](n2cnc3c(NC4CCCCC4)cc(Cl)nc32)[C@H](O)[C@@H]1O`, 2400 nM corresponded to half-maximal inhibition against Adenosine receptor A1 [1] (IC50). The relative max inhibition in assay [2] was 114%. For the same compound, in assay [3], the Selectivity is 2. Further, the results for the inhibition constant Ki on Adenosine receptor A1 [4] and at Adenosine A2 receptor [6] were 47 nM and 8200 nM, respectively. The compound further returned a concentration for a half-maximal effect (EC50) on Adenosine A2 receptor [5] of 4800 nM.
`CC(Cc1ccccc1)Nc1ccnc2c1ncn2C1O[C@H](CO)[C@@H](O)[C@H]1O` (stereo partly drawn) returned an IC50 against Adenosine receptor A1 [1] of 630 nM. The relative max inhibition in assay [2] worked out at 116%. The Selectivity in assay [3] is 10.5. Moreover, the Ki turned out to be 7.7 nM at Adenosine receptor A1 [4] and 4900 nM on Adenosine A2 receptor [6]. The EC50 at Adenosine A2 receptor [5] is 6600 nM.
